Reference: patent publication US20100092443A1, “NOVEL COMBINATIONS OF NITROGENATED HETEROCYCLIC ANTIBACTERIAL COMPOUNDS WITH OTHER ANTIBACTERIAL COMPOUNDS AND THE USE OF SAME AS DRUGS” (priority 2008, published 2010)
Where a name gives a salt, the structure may show the parent alone.

Columns and labels:
Format in all cases: cell-based
Pseudomonas aeruginosa = experiment: MIC, dilutions in liquid medium, alone and combined with NXL105
Description: (§1) In vitro activity, method of dilutions in liquid medium:
A series of test 96-well microtiter plates are prepared in which the same quantity of sterile nutritive medium is distributed. Increasing quantities of the compound to be studied, namely the antibacterial compound alone and the inventive combination with the compound of formula (I) of example 1, are distributed in each plate in the respective proportions 2:1 and 4:1, and then each plate is inoculated with a bacterial strain of Pseudomonas aeruginosa. After 24 h of incubation in a 37° C. oven, growth inhibition is evaluated by transillumination, which makes it possible to determine the minimum inhibitory concentrations (MICS) expressed in μg/ml.

E. coli = experiment: microbe, parasite or virus in culture
Description: as §1
(§2) A series of test 96-well microtiter plates are prepared in which the same quantity of sterile nutritive medium is distributed. […] After 24 h of incubation in a 37° C. oven, growth inhibition is evaluated by transillumination, which makes it possible to determine the minimum inhibitory concentrations (MICS) expressed in μg/ml.

E. cloacae = experiment: MIC, dilutions in liquid medium, alone and combined with NXL105
Description: as §1, §2

K. pneumoniae = experiment: as above
Description: as §1, §2

K. oxytoca = experiment: as above
C. freundii = experiment: as above

Structure (SMILES): Cn1ncc2c1[C@@H](CN)N1C[C@H]2N(OS(=O)(=O)O)C1=O (relative stereo) [NXL105, Sodium and Trifluoroacetate Salts of trans 8-(aminomethyl)-4,8-dihydro-1-methyl-5-(sulphooxy)-4,7-methano-7H-pyrazolo[3,4-e][1,3]diazepin-6(5H)-one]
- MIC (Pseudomonas aeruginosa; P. aeruginosa 391HG2): 1.000 mg/L
- MIC (Pseudomonas aeruginosa; P. aeruginosa 391HG21): 0.500 mg/L
- MIC (Pseudomonas aeruginosa; P. aeruginosa 391HG38): 32.000 mg/L
- MIC (Pseudomonas aeruginosa; P. aeruginosa 391HG39): 4.000 mg/L
- MIC (Pseudomonas aeruginosa; P. aeruginosa 391HG58): 1.000 mg/L
- MIC (Pseudomonas aeruginosa; P. aeruginosa 391HG118): 0.125 mg/L
- MIC (Pseudomonas aeruginosa; P. aeruginosa 391HG123): >32 mg/L
- MIC (Pseudomonas aeruginosa; P. aeruginosa 391HG158): 32.000 mg/L
- MIC (Pseudomonas aeruginosa; P. aeruginosa 391HG271): 32.000 mg/L
- MIC (Pseudomonas aeruginosa; P. aeruginosa 391HG329): 2.000 mg/L
- MIC (Pseudomonas aeruginosa; P. aeruginosa 391K767): 1.000 mg/L
- MIC (Pseudomonas aeruginosa; P. aeruginosa 391K1455): 2.000 mg/L
- MIC (Pseudomonas aeruginosa; P. aeruginosa 391K1523): 2.000 mg/L
- MIC (Pseudomonas aeruginosa; P. aeruginosa 391K1525): 4.000 mg/L
- MIC (Pseudomonas aeruginosa; P. aeruginosa 391K1536): 2.000 mg/L
- MIC (Pseudomonas aeruginosa; P. aeruginosa 391K2376): 2.000 mg/L
- MIC (Pseudomonas aeruginosa; P. aeruginosa 391K2379): 4.000 mg/L
- MIC (Pseudomonas aeruginosa; P. aeruginosa 391K2415): 2.000 mg/L
- MIC (Pseudomonas aeruginosa; P. aeruginosa 391KB9): 0.250 mg/L
- MIC (Pseudomonas aeruginosa; P. aeruginosa 391KB14): 1.000 mg/L
- MIC (Pseudomonas aeruginosa; P. aeruginosa 391KB21): 2.000 mg/L
- MIC (Pseudomonas aeruginosa; P. aeruginosa 391KB33): 0.500 mg/L
- MIC (Pseudomonas aeruginosa; P. aeruginosa 391KB38): 1.000 mg/L
- MIC (Pseudomonas aeruginosa; P. aeruginosa 391KB62): 4.000 mg/L
- MIC (Pseudomonas aeruginosa; P. aeruginosa 391KB68): 0.500 mg/L
- MIC (Pseudomonas aeruginosa; P. aeruginosa 391KB90): 8.000 mg/L
- MIC (Pseudomonas aeruginosa; P. aeruginosa 391KB91): 0.500 mg/L
- MIC (Pseudomonas aeruginosa; P. aeruginosa 391KB99): 0.500 mg/L
- MIC (Pseudomonas aeruginosa; P. aeruginosa 391KB103): 0.500 mg/L
- MIC (Pseudomonas aeruginosa; P. aeruginosa 391KB105): 1.000 mg/L
- MIC (Pseudomonas aeruginosa; P. aeruginosa 391KB106): 2.000 mg/L
- MIC (Pseudomonas aeruginosa; P. aeruginosa 391KB107): 1.000 mg/L
- MIC (Pseudomonas aeruginosa; P. aeruginosa 391KB114): 4.000 mg/L
- MIC (Pseudomonas aeruginosa; P. aeruginosa 391KB127): 0.500 mg/L
- MIC (Pseudomonas aeruginosa; P. aeruginosa 391KB135): 1.000 mg/L
- MIC (Pseudomonas aeruginosa; P. aeruginosa 391KB136): 0.500 mg/L
- MIC (Pseudomonas aeruginosa; P. aeruginosa 391KB137): 0.500 mg/L
- MIC (Pseudomonas aeruginosa; P. aeruginosa 391KB138): 0.500 mg/L
- MIC (Pseudomonas aeruginosa; P. aeruginosa 391KB139): 2.000 mg/L
- MIC (Pseudomonas aeruginosa; P. aeruginosa 391KB140): 2.000 mg/L
- MIC (Pseudomonas aeruginosa; P. aeruginosa 391KB141): 4.000 mg/L
- MIC (Pseudomonas aeruginosa; P. aeruginosa 391KB142): 1.000 mg/L
- MIC (Pseudomonas aeruginosa; P. aeruginosa 391KB143): 0.500 mg/L
- MIC (Pseudomonas aeruginosa; P. aeruginosa 391KB144): 16.000 mg/L
- MIC (Pseudomonas aeruginosa; P. aeruginosa 391QBR2): >32 mg/L
- MIC (Pseudomonas aeruginosa; P. aeruginosa 391QBR3): 2.000 mg/L
- MIC (Pseudomonas aeruginosa; P. aeruginosa 391QBR4): 2.000 mg/L
- MIC (Pseudomonas aeruginosa; P. aeruginosa 391QBR5): 1.000 mg/L
- MIC (Pseudomonas aeruginosa; P. aeruginosa 391QBR7): 2.000 mg/L
- MIC (Pseudomonas aeruginosa; P. aeruginosa 391QBR8): 2.000 mg/L
- MIC (Pseudomonas aeruginosa; P. aeruginosa 391QBR9): 2.000 mg/L
- MIC (Pseudomonas aeruginosa; P. aeruginosa 391QBR10): 4.000 mg/L
- MIC (Pseudomonas aeruginosa; P. aeruginosa ATCC 27853): 0.060 mg/L
- MIC (Pseudomonas aeruginosa; P. aeruginosa C3719): >32 mg/L
- MIC (Pseudomonas aeruginosa; P. aeruginosa PA2192): 0.125 mg/L
- MIC (E. coli; E. coli 2138, KPC-2 + TEM-1): >32 mg/L
- MIC (E. coli; E. coli (no alias), CTX-M-15 + TEM-1 + OXA-1): >32 mg/L
- MIC (E. coli; E. coli (no alias), Cephalosporinase): >32 mg/L
- MIC (E. coli; E. coli (no alias), SHV-4): >32 mg/L
- MIC (E. coli; E. coli (no alias), TEM-3): >32 mg/L
- MIC (E. coli; E. coli IND, VEB-1 + CMY-2): 16 mg/L
- MIC (E. coli; E. coli TN06, CTX-M-2 + TEM-1): 32 mg/L
- MIC (E. coli; E. coli TN13, CTX-M-14 + CMY-2 + TEM-1): 32 mg/L
- MIC (E. coli; E. coli Tunisie clone E4, CTX-M-16 + TEM-1): >32 mg/L
- MIC (E. cloacae; E. cloacae 7506, KPC-2 + TEM-1 + KLUC-2): 32 mg/L
- MIC (E. cloacae; E. cloacae (no alias), AmpC): 32 mg/L
- MIC (E. cloacae; E. cloacae, AmpC): >32 mg/L
- MIC (K. pneumoniae; K. pneumoniae 26, SHV-5): 32 mg/L
- MIC (K. pneumoniae; K. pneumoniae 60, SHV-2 + TEM-2 + PER): 32 mg/L
- MIC (K. pneumoniae; K. pneumoniae 157, SHV-5 + TEM-26): >32 mg/L
- MIC (K. pneumoniae; K. pneumoniae 181, SHV-5 + TEM-10): >32 mg/L
- MIC (K. pneumoniae; K. pneumoniae 236, SHV-5 + TEM-10): >32 mg/L
- MIC (K. pneumoniae; K. pneumoniae 238, SHV-2 + TEM-12 + CTX-M-2): >32 mg/L
- MIC (K. pneumoniae; K. pneumoniae 243, SHV-5 + TEM-63): >32 mg/L
- MIC (K. pneumoniae; K. pneumoniae 253, SHV-2 + TEM-12 + CTX-M-2): >32 mg/L
- MIC (K. pneumoniae; K. pneumoniae 427, SHV-1 + TEM-1B + CTX-M-3): >32 mg/L
- MIC (K. pneumoniae; K. pneumoniae 441, SHV-1 + TEM-2 + PER): >32 mg/L
- MIC (K. pneumoniae; K. pneumoniae 444, SHV-5 + TEM-2 + PER): >32 mg/L
- MIC (K. pneumoniae; K. pneumoniae 449, SHV-1 + TEM-2 + PER): 32 mg/L
- MIC (K. pneumoniae; K. pneumoniae 465, TEM-1B + CTX-M-2): >32 mg/L
- MIC (K. pneumoniae; K. pneumoniae 1734, FOX-3 + TEM-1): >32 mg/L
- MIC (K. pneumoniae; K. pneumoniae 9701, CMY-4 + TEM-1): >32 mg/L
- MIC (K. pneumoniae; K. pneumoniae ATCC 700603, SHV-18): >32 mg/L
- MIC (K. pneumoniae; K. pneumoniae CL5761, KPC-3): >32 mg/L
- MIC (K. pneumoniae; K. pneumoniae CL5762, KPC-3): >32 mg/L
- MIC (K. pneumoniae; K. pneumoniae CL5763, KPC-3): >32 mg/L
- MIC (K. pneumoniae; K. pneumoniae KOL, MOX-2 + SHV-5 + TEM-1): >32 mg/L
- MIC (K. pneumoniae; K. pneumoniae KP04, CTX-M-14): >32 mg/L
- MIC (K. pneumoniae; K. pneumoniae Patient 1BHR, VIM-4 + CTX-M-15 = CMY-4 + TEM-1): 16 mg/L
- MIC (K. pneumoniae; K. pneumoniae Patient F, VIM-1 + SHV-5): >32 mg/L
- MIC (K. pneumoniae; K. pneumoniae SLK54, ACC-1 + TEM-1): >32 mg/L
- MIC (K. pneumoniae; K. pneumoniae TN58467, DHA-1 + SHV-2a + TEM-1): >32 mg/L
- MIC (K. pneumoniae; K. pneumoniae Tunisie clone K1, CTX-M-16 + OXA-1): >32 mg/L
- MIC (K. pneumoniae; K. pneumoniae Tunisie clone K4, CTX-M-15 + TEM-1 + OXA-1): 16 mg/L
- MIC (K. pneumoniae; K. pneumoniae VA8, KPC-3): >32 mg/L
- MIC (K. pneumoniae; K. pneumoniae VAKP, KPC-2): >32 mg/L
- MIC (K. pneumoniae; K. pneumoniae YC, KPC-2): >32 mg/L
- MIC (K. oxytoca; K. oxytoca 1431, TEM-129): 32 mg/L
- MIC (K. oxytoca; K. oxytoca 16944, OXY-2, TEM-1): >32 mg/L
- MIC (C. freundii; C. freundii (no alias), AmpC + TEM-1): 16 mg/L
- MIC (C. freundii; C. freundii (no alias, table row r121), AmpC): 16 mg/L
- MIC (C. freundii; C. freundii (no alias, table row r122), AmpC): 32 mg/L
- MIC (C. freundii; C. freundii (no alias, table row r123), AmpC): >32 mg/L
- MIC (C. freundii; C. freundii (no alias, table row r125), AmpC): 32 mg/L
